Experimental findings from patent publication US11780893B2, “Kv1.3 blockers” (Zealand Pharma A/S, priority 2019, dated 2023) are described below.

The target in series [1] is T1, human Kv1.3 voltage-gated K+ channel (Homo sapiens, UniProt P22001).
T1 construct: host or cells: CHO-DUKX
Put plainly: cell-based. Particulars: inhibition of thallium flux, CHO-DUKX cells with human Kv1.3; read-out: IC50.

The target in a further series is T2, Kv1.1 (Homo sapiens, UniProt Q09470).
T2 construct: expressed in transfected cells; host or cells: Chinese Hamster Ovary (CHO)
T2 sequence (Q09470 whole entry): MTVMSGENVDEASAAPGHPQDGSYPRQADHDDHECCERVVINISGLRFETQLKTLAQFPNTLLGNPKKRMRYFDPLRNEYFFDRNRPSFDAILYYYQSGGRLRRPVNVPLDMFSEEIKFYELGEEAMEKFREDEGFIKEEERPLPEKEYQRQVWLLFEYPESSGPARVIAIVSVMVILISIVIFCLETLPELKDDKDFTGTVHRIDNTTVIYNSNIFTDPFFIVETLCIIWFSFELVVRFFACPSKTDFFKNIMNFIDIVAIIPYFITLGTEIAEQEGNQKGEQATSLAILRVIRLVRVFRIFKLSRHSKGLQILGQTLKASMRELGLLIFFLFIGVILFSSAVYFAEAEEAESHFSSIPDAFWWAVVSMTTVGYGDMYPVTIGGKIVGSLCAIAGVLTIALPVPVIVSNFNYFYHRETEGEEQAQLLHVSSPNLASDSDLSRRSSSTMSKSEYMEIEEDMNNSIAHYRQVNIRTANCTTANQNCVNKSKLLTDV
Put plainly: cell-based. Particulars: for IC50: CHO cells, whole-cell patch clamp, read-out: Potency IC50 (nM) Kv1.1; for Selectivity Kv1.1/Kv1.3: ratio IC50[Kv1.1]/IC50[Kv1.3].

The target in a further series is T3, Kv1.2 (Homo sapiens, UniProt P16389).
T3 construct: expressed in transfected cells; host or cells: Chinese Hamster Ovary (CHO)
T3 sequence (P16389 whole entry): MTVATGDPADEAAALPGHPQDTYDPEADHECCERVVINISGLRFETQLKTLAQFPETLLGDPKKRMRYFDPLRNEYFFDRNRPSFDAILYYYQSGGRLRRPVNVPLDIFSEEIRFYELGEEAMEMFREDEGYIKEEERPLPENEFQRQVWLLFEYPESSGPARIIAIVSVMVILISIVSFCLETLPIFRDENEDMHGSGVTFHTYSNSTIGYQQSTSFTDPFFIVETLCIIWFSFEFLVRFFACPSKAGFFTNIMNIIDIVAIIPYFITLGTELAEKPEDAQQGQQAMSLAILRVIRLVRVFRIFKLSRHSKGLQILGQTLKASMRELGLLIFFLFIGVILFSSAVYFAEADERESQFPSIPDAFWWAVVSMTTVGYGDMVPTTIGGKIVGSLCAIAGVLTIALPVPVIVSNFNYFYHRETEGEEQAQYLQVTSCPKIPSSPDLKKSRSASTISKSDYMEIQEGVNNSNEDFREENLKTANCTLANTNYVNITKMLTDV
The series is described as follows: cell-based. Particulars: CHO cells, whole-cell patch clamp; read-out: Potency IC50 (nM) Kv1.2.

Another series has as its target T4, Kv1.3 (Homo sapiens, UniProt P22001).
T4 construct: expressed in transfected cells; host or cells: Chinese Hamster Ovary (CHO)
The series is described as follows: cell-based. The following applies: CHO cells, whole-cell patch clamp; read-out: Potency IC50 (nM) Kv1.3.

The target in a further series is T5, Kv1.6 (Homo sapiens, UniProt P17658).
T5 construct: expressed in transfected cells; host or cells: Chinese Hamster Ovary (CHO)
T5 sequence (P17658 whole entry): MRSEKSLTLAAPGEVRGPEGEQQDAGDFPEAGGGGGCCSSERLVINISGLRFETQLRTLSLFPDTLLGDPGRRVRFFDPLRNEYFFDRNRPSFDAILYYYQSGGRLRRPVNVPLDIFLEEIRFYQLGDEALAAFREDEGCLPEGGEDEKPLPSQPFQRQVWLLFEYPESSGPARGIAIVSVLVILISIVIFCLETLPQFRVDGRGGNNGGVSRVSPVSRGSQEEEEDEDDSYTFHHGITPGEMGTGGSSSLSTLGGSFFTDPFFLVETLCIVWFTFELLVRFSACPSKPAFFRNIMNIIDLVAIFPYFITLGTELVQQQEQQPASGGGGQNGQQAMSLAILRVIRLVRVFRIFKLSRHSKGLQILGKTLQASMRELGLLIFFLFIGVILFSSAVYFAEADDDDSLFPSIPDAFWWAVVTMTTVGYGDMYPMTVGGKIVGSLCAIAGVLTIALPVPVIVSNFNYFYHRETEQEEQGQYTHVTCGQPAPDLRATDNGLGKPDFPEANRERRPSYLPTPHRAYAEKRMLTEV
The series is described as follows: cell-based. Particulars: for IC50: CHO cells, whole-cell patch clamp, read-out: Potency IC50 (nM) Kv1.6.

The next series can be described thus: in vivo. Particulars: male, rat, sc, 70 nmol/kg.
In another series the target is Rat whole blood (Rattus norvegicus, UniProt P15384).
Rat whole blood, sequence (P15384 whole entry): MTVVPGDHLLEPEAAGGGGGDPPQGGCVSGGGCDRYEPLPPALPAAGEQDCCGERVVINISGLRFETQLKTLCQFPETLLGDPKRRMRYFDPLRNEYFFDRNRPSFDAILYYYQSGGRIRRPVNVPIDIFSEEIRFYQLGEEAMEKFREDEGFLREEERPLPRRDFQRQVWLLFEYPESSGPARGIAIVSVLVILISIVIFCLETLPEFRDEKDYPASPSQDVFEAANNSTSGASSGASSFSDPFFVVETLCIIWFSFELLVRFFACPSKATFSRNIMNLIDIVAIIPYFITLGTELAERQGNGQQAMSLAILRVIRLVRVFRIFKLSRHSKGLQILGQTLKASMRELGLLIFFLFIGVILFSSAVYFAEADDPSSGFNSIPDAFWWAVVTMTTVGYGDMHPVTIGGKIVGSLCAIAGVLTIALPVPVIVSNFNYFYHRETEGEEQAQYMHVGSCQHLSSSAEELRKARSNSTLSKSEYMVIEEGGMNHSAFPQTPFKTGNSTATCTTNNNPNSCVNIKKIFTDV

Bridge positions count the residues as written; N and C are the ends. Square brackets hold non-standard residues; d marks the D form. Peptide text beside a SMILES is read from it. Nle = CCCC[C@H](N)C(=O)O

T1 sequence (P22001 whole entry): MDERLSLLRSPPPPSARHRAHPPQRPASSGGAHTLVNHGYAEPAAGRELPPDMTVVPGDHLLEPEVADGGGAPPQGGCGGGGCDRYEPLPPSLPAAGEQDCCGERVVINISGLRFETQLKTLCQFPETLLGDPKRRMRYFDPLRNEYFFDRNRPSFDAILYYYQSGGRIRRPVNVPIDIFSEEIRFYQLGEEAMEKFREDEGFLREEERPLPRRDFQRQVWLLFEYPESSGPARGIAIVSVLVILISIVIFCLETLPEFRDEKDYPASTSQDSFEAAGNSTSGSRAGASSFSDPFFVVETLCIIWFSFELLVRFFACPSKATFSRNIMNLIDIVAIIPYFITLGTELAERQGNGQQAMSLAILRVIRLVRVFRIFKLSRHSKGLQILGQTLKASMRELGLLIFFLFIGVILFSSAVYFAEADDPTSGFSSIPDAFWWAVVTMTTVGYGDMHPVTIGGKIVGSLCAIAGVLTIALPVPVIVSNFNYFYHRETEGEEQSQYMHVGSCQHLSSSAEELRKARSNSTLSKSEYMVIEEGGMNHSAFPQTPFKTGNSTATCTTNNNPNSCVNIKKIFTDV
T4 sequence (P22001 whole entry): as above

`CC[C@H](C)[C@@H]1NC(=O)[C@H](C)NC(=O)[C@H](CCCCN)NC(=O)[C@H](CC(C)C)NC(=O)[C@@H]2CSSC[C@@H](C(=O)N[C@@H](Cc3ccc(O)cc3)C(=O)N3CCC[C@H]3C(=O)N[C@@H](CCCNC(=N)N)C(=O)O)NC(=O)[C@H](CCCCN)NC(=O)[C@@H]3CSSC[C@H](NC(=O)[C@H](CCC(=O)O)NC(=O)[C@H](C(C)C)NC(=O)[C@H](CO)NC(=O)[C@H](C)NC(=O)[C@H](CO)NC(=O)[C@@H](NC(=O)[C@H](CCCNC(=N)N)NC(=O)[C@H](CCSC)NC(=O)[C@H](CC(=O)O)NC(=O)[C@@H](N)CCSC)CSSC[C@H](NC(=O)[C@H](CCCCN)NC(=O)CNC(=O)[C@H](Cc4ccccc4)NC(=O)[C@H]([C@@H](C)CC)NC(=O)[C@H](CO)NC(=O)CNC1=O)C(=O)N[C@@H](CCSC)C(=O)N[C@@H](CC(N)=O)C(=O)N[C@@H](CCCCN)C(=O)N[C@@H](CCCCN)C(=O)N3)C(=O)N[C@@H](CCCCN)C(=O)N[C@@H](CCC(N)=O)C(=O)N[C@@H](CCCCN)C(=O)N2` [Compound 5] (H-MDMRCSASVECKQKCLKAIGSIFGKCMNKKCKCYPR-OH; disulfide 5-26, 11-31, 15-33): the half-inhibitory concentration (IC50) was 0.25 nM in series [1]; greater than 3000 nM at Kv1.1; 285 nM at Kv1.2; 0.38 nM at Kv1.3; greater than 3000 nM at Kv1.6. The “Selectivity Kv1.1/Kv1.3” value at Kv1.1 was greater than 7900. Moreover, the “Selectivity Kv1.6/Kv1.3” value at Kv1.6 (ratio IC50[Kv1.6]/IC50[Kv1.3]) is recorded as greater than 7900. This compound also had an AUC(0-inf) in the series “in vivo” of 0.0724 µM·h. The Cmax in the series “in vivo” turned out to be 48.4 nM. In “in vivo”, this compound showed a half-life of 55.8 min.

For `CCCC[C@@H]1NC(=O)[C@@H]2CSSC[C@H](NC(=O)[C@H](CCCNC(=N)N)NC(=O)[C@H](CC(C)C)NC(C)=O)C(=O)N[C@@H](CO)C(=O)N[C@@H](C)C(=O)N[C@@H](CO)C(=O)N[C@@H](C(C)C)C(=O)N[C@@H](CCC(=O)O)C(=O)N[C@H]3CSSC[C@H](NC(=O)[C@H](CCCCN)NC(=O)[C@H](CCCCN)NC(=O)[C@H](CC(N)=O)NC1=O)C(=O)N[C@@H](CCCCN)C(=O)N[C@H](C(=O)N[C@@H](Cc1ccc(O)cc1)C(=O)N1CCC[C@H]1C(=O)N[C@@H](CCCNC(=N)N)C(N)=O)CSSC[C@H](NC(=O)[C@H](CCCCN)NC(=O)[C@H](CCC(N)=O)NC(=O)[C@H](CCCCN)NC3=O)C(=O)N[C@@H](CC(C)C)C(=O)N[C@@H](CCCCN)C(=O)N[C@@H](C)C(=O)N[C@@H]([C@@H](C)CC)C(=O)NCC(=O)N[C@@H](CO)C(=O)N[C@@H]([C@@H](C)CC)C(=O)N[C@@H](Cc1ccccc1)C(=O)NCC(=O)N[C@@H](CCCCN)C(=O)N2` [Compound 108] (Ac-LRCSASVECKQKCLKAIGSIFGKC[Nle]NKKCKCYPR-NH2; disulfide 3-24, 9-29, 13-31), the 50% inhibitory concentration (IC50) in series [1] was 0.1 nM; on Kv1.1, greater than 3000 nM; on Kv1.2, 122 nM; on Kv1.3, 0.35 nM; at Kv1.6, 2460 nM; against Rat whole blood, no more than 1 nM. The “Selectivity Kv1.1/Kv1.3” value on Kv1.1 is listed as greater than 8700.
